The values that follow come from US20230203043A1, “NOVEL IMIDAZOPYRAZINE DERIVATIVES” (Hoffmann-La Roche Inc., priority 2020, published 2023).

The assay deals with Acinetobacter baumannii ATCC17961. Description: Antimicrobial susceptibility testing: 90% growth inhibitory concentration (IC90) determination in Iso-Sensitest broth, OD600 growth. The class given is cell-based. The method, boiled down: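 Growth monitored at 600 nm every 20 min for 16 h at 35±2 °C, inoculum ~5×10^(5) CFU/ml in Iso-Sensitest medium. Compounds in 10-point twofold series, e.g. 50 to 0.097 μM final; 90% inhibitory concentration taken from log-phase growth.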

[1] abbreviates: Acinetobacter baumannii, ATCC17961, 16 h, strain ATCC 17961, OD600 growth over 16 h, read-out: A. baumannii ATCC 17961 IC90.
Where [2] appears, read: Acinetobacter baumannii, ATCC17961, 16 h, read-out: A. baumannii ATCC 17961 IC90 (uM), strain ATCC 17961, OD600 growth over 16 h.

The IC90 is the concentration at which the effect reaches the 90% level.

Counter-ions that a name gives are not always drawn. Like-named read-outs stand apart in the source and are kept apart here.

`CCc1cc(Nc2nccn3c(-c4cn(CC#N)nc4C(F)(F)F)cnc23)ccc1C(=O)NCCOC[C@@H](C)N` [Example 156, N-[2-[(2R)-2-aminopropoxy]ethyl]-4-[[3-[1-(cyanomethyl)-3-(trifluoromethyl)pyrazol-4-yl]imidazo[1,2-a]pyrazin-8-yl]amino]-2-ethylbenzamide]: under setting [1], the IC90 amounted to 0.627 µM.
`O=C(c1ccc(Nc2nccn3c(-c4c[nH]nc4C(F)(F)F)cnc23)cc1Cl)N1CCN(C(=O)[C@H]2CCNC[C@@H]2O)CC1` [Example 453, [2-chloro-4-[[3-[3-(trifluoromethyl)-1H-pyrazol-4-yl]imidazo[1,2-a]pyrazin-8-yl]amino]phenyl]-[4-[(3R,4S)-3-hydroxypiperidine-4-carbonyl]piperazin-1-yl]methanone formate]: the IC90 under setting [2] came out at 0.586 µM.
For the compound `CCc1cc(Nc2nccn3c(-c4cn(COC)nc4C(F)F)cnc23)ccc1C(=O)N1CCN(C(=O)[C@H](C)N)CC1` [Example 767, (S)-2-amino-1-(4-(4-((3-(3-(difluoromethyl)-1-(methoxymethyl)-1H-pyrazol-4-yl)imidazo[1,2-a]pyrazin-8-yl)amino)-2-ethylbenzoyl)piperazin-1-yl)propan-1-one], under setting [1], the IC90 was 0.904 µM.
Take `CCc1cc(Nc2nccn3c(-c4cn(C5CCC5)nc4C(F)(F)F)cnc23)ccc1C(=O)NCCOCCCN` [Example 609, N-(2-(3-aminopropoxy)ethyl)-4-((3-(1-cyclobutyl-3-(trifluoromethyl)-1H-pyrazol-4-yl)imidazo[1,2-a]pyrazin-8-yl)amino)-2-ethylbenzamide formate]: the IC90 under setting [2] came to 0.086 µM.
Take `CCc1cc(Nc2nccn3c(-c4c[nH]nc4C(F)(F)F)cnc23)ccc1C(=O)NCCOCCN1CCCC1` [Example 672, 2-ethyl-N-(2-(2-(pyrrolidin-1-yl)ethoxy)ethyl)-4-((3-(3-(trifluoromethyl)-1H-pyrazol-4-yl)imidazo[1,2-a]pyrazin-8-yl)amino)benzamide]: the IC90 under setting [1] turned out to be 0.313 µM.
As to `CCc1cc(Nc2nccn3c(-c4cn(CC#N)nc4C(F)F)cnc23)ccc1C(=O)N1CCN(C(=O)[C@H]2C[C@H](N)C2)CC1` [Example 800, 2-(4-(8-((4-(4-((1r,3r)-3-aminocyclobutane-1-carbonyl)piperazine-1-carbonyl)-3-ethylphenyl)amino)imidazo[1,2-a]pyrazin-3-yl)-3-(difluoromethyl)-1H-pyrazol-1-yl)acetonitrile], the IC90 under setting [1] is 2.78 µM.
For the compound `CCc1cc(Nc2nccn3c(-c4cn(CCOC)nc4C(F)(F)F)cnc23)ccc1C(=O)NCCOCCN` [Example 34, N-[2-(2-aminoethoxy)ethyl]-2-ethyl-4-[[3-[1-(2-methoxyethyl)-3-(trifluoromethyl)pyrazol-4-yl]imidazo[1,2-a]pyrazin-8-yl]amino]benzamide formate], the IC90 under setting [2] is 0.367 µM.
For `C#CCn1cc(-c2cnc3c(Nc4ccc(C(=O)N5CCN(C(=O)[C@H](N)C(C)C)CC5)c(CC)c4)nccn23)c(C(F)F)n1` [Example 773, (R)-2-amino-1-(4-(4-((3-(3-(difluoromethyl)-1-(prop-2-yn-1-yl)-1H-pyrazol-4-yl)imidazo[1,2-a]pyrazin-8-yl)amino)-2-ethylbenzoyl)piperazin-1-yl)-3-methylbutan-1-one], the IC90 under setting [1] came to 0.978 µM.
With `CNC(=O)c1ccc(Nc2nccn3c(-c4cn(Cc5ccncn5)nc4C(F)(F)F)cnc23)cc1Cl` [Example 281, 2-chloro-N-methyl-4-[[3-[1-(pyrimidin-4-ylmethyl)-3-(trifluoromethyl)pyrazol-4-yl]imidazo[1,2-a]pyrazin-8-yl]amino]benzamide], the IC90 under setting [1] worked out at 0.345 µM.
`NCCC(=O)NCCNC(=O)c1ccc(Nc2nccn3c(-c4c[nH]nc4C(F)(F)F)cnc23)cc1Cl` [Example 299, N-[2-(3-aminopropanoylamino)ethyl]-2-chloro-4-[[3-[3-(trifluoromethyl)-1H-pyrazol-4-yl]imidazo[1,2-a]pyrazin-8-yl]amino]benzamide]: the IC90 under setting [1] amounted to 0.699 µM.
As for `CCc1cc(Nc2nccn3c(-c4cn(CC#N)nc4C(F)(F)F)cnc23)ccc1C(=O)NCCNC(=O)[C@H]1C[C@@H](N)C1` [Example 498, cis-N-(2-((1s,3s)-3-aminocyclobutane-1-carboxamido)ethyl)-4-((3-(1-(cyanomethyl)-3-(trifluoromethyl)-1H-pyrazol-4-yl)imidazo[1,2-a]pyrazin-8-yl)amino)-2-ethylbenzamide formate], under setting [1], the IC90 turned out to be 0.193 µM.
As to `Cc1cc(Nc2nccn3c(-c4cn(CC#N)nc4C(F)(F)F)cnc23)ccc1C(=O)N[C@H](C)C(=O)N1CCC(N)CC1` [Example 690, N-[(1R)-2-(4-amino-1-piperidyl)-1-methyl-2-oxo-ethyl]-4-[[3-[1-(cyanomethyl)-3-(trifluoromethyl)pyrazol-4-yl]imidazo[1,2-a]pyrazin-8-yl]amino]-2-methyl-benzamide formate], the IC90 under setting [2] came to 0.351 µM.
Take `Cc1cc(Nc2nccn3c(-c4cn(CC(F)F)nc4C(F)(F)F)cnc23)cc(F)c1C(=O)NCCCCCCN` [Example 615, N-(6-aminohexyl)-4-((3-(1-(2,2-difluoroethyl)-3-(trifluoromethyl)-1H-pyrazol-4-yl)imidazo[1,2-a]pyrazin-8-yl)amino)-2-fluoro-6-methylbenzamide]: the IC90 under setting [1] was determined as 0.122 µM.
Consider `CCc1cc(Nc2nccn3c(-c4c[nH]nc4C(F)(F)F)cnc23)ccc1C(=O)NCCCNC(=O)[C@@H](N)CCCCN` [Example 195, N-[3-[[(2S)-2,6-diaminohexanoyl]amino]propyl]-2-ethyl-4-[[3-[3-(trifluoromethyl)-1H-pyrazol-4-yl]imidazo[1,2-a]pyrazin-8-yl]amino]benzamide formate], for which the IC90 under setting [2] came to 0.331 µM.
With `CCc1cc(Nc2nccn3c(-c4c[nH]nc4C(F)(F)F)cnc23)ccc1C(=O)NCCC1(N)CC1` [Example 263, N-[2-(1-aminocyclopropyl)ethyl]-2-ethyl-4-[[3-[3-(trifluoromethyl)-1H-pyrazol-4-yl]imidazo[1,2-a]pyrazin-8-yl]amino]benzamide], the IC90 under setting [1] was 2.43 µM.
With `CCc1cc(Nc2nccn3c(-c4cn(CC(F)F)nc4C(F)(F)F)cnc23)ccc1C(=O)N[C@H](C)CNC(=O)OC(C)(C)C` [Example 130, tert-butyl N-[(2R)-2-[[4-[[3-[1-(2,2-difluoroethyl)-3-(trifluoromethyl)pyrazol-4-yl]imidazo[1,2-a]pyrazin-8-yl]amino]-2-ethylbenzoyl]amino]propyl] carbamate], the IC90 (strain ATCC 17961, OD600 growth over 16 h, read-out: A. baumannii ATCC 17961 IC90) was 1.33 µM.
In the case of `CCc1cc(Nc2nccn3c(-c4c[nH]nc4C(F)(F)F)cnc23)ccc1C(=O)NCCNC(=O)NCCCN` [Example 569, N-(2-(3-(3-aminopropyl)ureido)ethyl)-2-ethyl-4-((3-(3-(trifluoromethyl)-1H-pyrazol-4-yl)imidazo[1,2-a]pyrazin-8-yl)amino)benzamide formate], under setting [2], the IC90 amounted to 0.364 µM.
`CCc1cc(Nc2nccn3c(-c4cn(CC=C(C)C)nc4C(F)(F)F)cnc23)ccc1C(=O)NCCOCCN` [Example 614, N-(2-(2-aminoethoxy)ethyl)-2-ethyl-4-((3-(1-(3-methylbut-2-en-1-yl)-3-(trifluoromethyl)-1H-pyrazol-4-yl)imidazo[1,2-a]pyrazin-8-yl)amino)benzamide formate]: under setting [2], the IC90 turned out to be 0.11 µM.
As for `N#CCn1cc(-c2cnc3c(Nc4ccc(C(=O)N5CC(O)C5)c(Cl)c4)nccn23)c(C(F)(F)F)n1` [Example 236, 2-[4-[8-[3-chloro-4-(3-hydroxyazetidine-1-carbonyl)anilino]imidazo[1,2-a]pyrazin-3-yl]-3-(trifluoromethyl)pyrazol-1-yl]acetonitrile], the IC90 under setting [1] was 0.193 µM.
In the case of `CCc1cc(Nc2nccn3c(-c4c[nH]nc4C(F)(F)F)cnc23)ccc1C(=O)NCCCNC(=O)[C@H]1C[C@@H](N)C1` [Example 531, N-(3-((1s,3s)-3-aminocyclobutane-1-carboxamido)propyl)-2-ethyl-4-((3-(3-(trifluoromethyl)-1H-pyrazol-4-yl)imidazo [1,2-a]pyrazin-8-yl)amino)benzamide formate], the IC90 under setting [1] was determined as 0.299 µM.
As for `CCc1cc(Nc2nccn3c(-c4c[nH]nc4C(F)(F)F)cnc23)ccc1C(=O)NCCOCC(C)(C)N` [Example 176, N-[2-(2-amino-2-methylpropoxy)ethyl]-2-ethyl-4-[[3-[3-(trifluoromethyl)-1H-pyrazol-4-yl]imidazo[1,2-a]pyrazin-8-yl]amino]benzamide hydrochloride], the IC90 under setting [1] turned out to be 0.409 µM.
On to `CNC(=O)c1ccc(Nc2nccn3c(-c4cn(C5CCN(Cc6ccccc6)CC5)nc4C(F)(F)F)cnc23)cc1Cl` [Example 592, 4-((3-(1-(1-benzylpiperidin-4-yl)-3-(trifluoromethyl)-1H-pyrazol-4-yl)imidazo[1,2-a]pyrazin-8-yl)amino)-2-chloro-N-methylbenzamide formate], for which the IC90 under setting [2] was 0.402 µM.
For `CC#CCn1cc(-c2cnc3c(Nc4ccc(C(=O)NCC(=O)NCCN)c(Cl)c4)nccn23)c(C(F)(F)F)n1` [Example 89, N-[2-(2-aminoethylamino)-2-oxoethyl]-4-[[3-[1-but-2-ynyl-3-(trifluoromethyl)pyrazol-4-yl]imidazo[1,2-a]pyrazin-8-yl]amino]-2-chlorobenzamide formate], the IC90 under setting [2] turned out to be 0.573 µM.
Regarding `CCc1cc(Nc2nccn3c(-c4cn(CC(F)F)nc4C(F)(F)F)cnc23)ccc1C(=O)N1CCC12CNC2` [Example 559, (4-((3-(1-(2,2-difluoroethyl)-3-(trifluoromethyl)-1H-pyrazol-4-yl)imidazo[1,2-a]pyrazin-8-yl)amino)-2-ethylphenyl)(1,6-diazaspiro[3.3]heptan-1-yl)methanone formate], the IC90 under setting [2] is 0.398 µM.
